Reference: US10604534B2, “C5-C6-oxacyclic fused iminothiadiazine dioxide compounds bearing an ether linker as BACE inhibitors, compositions, and their use” (Merck Sharp & Dohme Corp., priority 2016, dated 2020)

Legend:
[1] = target: soluble human BACE1 catalytic domain (Homo sapiens (Human), UniProt P56817); assay: BACE1 HTRF FRET Assay; assay type: biochemical; details: Ki calculated from IC50 using the Cheng-Prusoff equation; QSY7-APPswe-Eu substrate, pH 5.0; read-out: BACE-1 Ki
Excerpt: • Reagents: Na^+-Acetate pH 5.0; 1% Brij-35; Glycerol; Dimethyl Sulfoxide (DMSO); Recombinant human soluble BACE1 catalytic domain (>95% pure); APP Swedish mutant peptide substrate (QSY7-APP^swe-Eu): QSY7-EISEVNLDAEFC-Europium-amide.
A homogeneous time-resolved FRET assay can be used to determine IC50 values for inhibitors of the soluble human BACE1 catalytic domain. This assay monitors the increase of 620 nm fluorescence that resulted from BACE1 cleavage of an APPswedish APP^swe mutant peptide FRET substrate (QSY7-EISEVNLDAEFC-Europium-amide). This substrate contains an N-terminal QSY7 moiety that serves as a quencher of the C-terminal Europium fluorophore (620 nm Em). In the absence of enzyme activity, 620 nm fluorescence is low in the assay and increased linearly over 3 hours in the presence of uninhibited BACE1 enzyme. Inhibition of BACE1 cleavage of the QSY7-APP^swe-Eu substrate by inhibitors is manifested as a suppression of 620 nm fluorescence.
Varying concentrations of inhibitors at 3× the final desired concentration in a volume of 10 ul are preincubated with purified human BACE1 catalytic domain (3 nM in 10 μl) for 30 minutes at 30° C. in reaction buffer containing 20 mM Na-Acetate pH 5.0, 10% glycerol, 0.1% Brij-35 and 7.5% DSMO. Reactions are initiated by addition of 10 μl of 600 nM QSY7-APP^swe-Eu substrate (200 nM final) to give a final reaction volume of 30 μl in a 384 well Nunc HTRF plate. The reactions are incubated at 30° C. for 1.5 hours. The 620 nm fluorescence is then read on a Rubystar HTRF plate reader (BMG Labtechnologies) using a 50 millisecond delay followed by a 400 millisecond acquisition time window. Inhibitor IC50 values are derived from non-linear regression analysis of concentration response curves. Ki values are then calculated from IC50 values using the Cheng-Prusoff equation using a previously determined m value of […] for the QSY7-APP^swe-Eu substrate at BACE1.

[2] = target: purified human autoBACE-2 (Homo sapiens (Human), UniProt Q9Y5Z0); assay: BACE-2 Assay (BACE-HTRF assay); assay type: biochemical; details: Ki calculated from IC50 using the Cheng-Prusoff equation; QSY7-EISEVNLDAEFC-Eu-amide substrate, pH 5.0
Experimental: Inhibitor IC50s at purified human autoBACE-2 are determined in a time-resolved endpoint proteolysis assay that measures hydrolysis of the QSY7-EISEVNLDAEFC-Eu-amide FRET peptide substrate (BACE-HTRF assay). BACE-mediated hydrolysis of this peptide results in an increase in relative fluorescence (RFU) at 620 nm after excitation with 320 nm light. Inhibitor compounds, prepared at 3× the desired final concentration in 1×BACE assay buffer (20 mM sodium acetate pH 5.0, 10% glycerol, 0.1% Brij-35) supplemented with 7.5% DMSO are preincubated with an equal volume of autoBACE-2 enzyme diluted in 1×BACE assay buffer (final enzyme concentration 1 nM) in black 384-well NUNC plates for 30 minutes at 30° C. […] DMSO is present at 5% final concentration in the assay. Following laser excitation of sample wells at 320 nm, the fluorescence signal at 620 nm is collected for 400 ms following a […] on a RUBYstar HTRF plate reader (BMG Labtechnologies). Raw RFU data is normalized to maximum (1.0 nM BACE/DMSO) and minimum (no enzyme/DMSO) RFU values. IC50s are determined by nonlinear regression analysis (sigmoidal dose response, variable slope) of percent inhibition data with minimum and maximum values set to 0 and 100 percent respectively. Similar IC50s are obtained when using raw RFU data. The Ki values are calculated from the IC50 using the Cheng-Prusoff equation.

Chain of purified human autoBACE-2 (Q9Y5Z0 63-473): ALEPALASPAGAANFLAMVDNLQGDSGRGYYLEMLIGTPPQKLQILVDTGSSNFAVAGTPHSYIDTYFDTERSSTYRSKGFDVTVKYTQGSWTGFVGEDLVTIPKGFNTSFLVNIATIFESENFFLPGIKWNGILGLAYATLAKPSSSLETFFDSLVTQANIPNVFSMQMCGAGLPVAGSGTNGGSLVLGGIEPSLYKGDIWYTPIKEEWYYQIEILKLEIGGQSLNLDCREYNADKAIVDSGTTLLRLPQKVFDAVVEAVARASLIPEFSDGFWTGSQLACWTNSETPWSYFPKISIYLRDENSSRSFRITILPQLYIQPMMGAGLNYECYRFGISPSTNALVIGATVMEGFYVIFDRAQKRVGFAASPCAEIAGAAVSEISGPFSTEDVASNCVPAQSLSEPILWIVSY
Chain of soluble human BACE1 catalytic domain (P56817 75-416): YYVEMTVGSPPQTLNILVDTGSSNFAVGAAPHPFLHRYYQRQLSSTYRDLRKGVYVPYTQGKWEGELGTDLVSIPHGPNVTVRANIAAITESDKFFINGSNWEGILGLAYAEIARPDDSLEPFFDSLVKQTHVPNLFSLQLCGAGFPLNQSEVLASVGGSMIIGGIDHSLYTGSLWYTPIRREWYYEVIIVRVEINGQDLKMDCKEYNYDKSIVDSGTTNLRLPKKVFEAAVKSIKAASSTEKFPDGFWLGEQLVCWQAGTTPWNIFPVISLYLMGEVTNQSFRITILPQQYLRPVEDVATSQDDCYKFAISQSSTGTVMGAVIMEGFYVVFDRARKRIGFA

For `C[C@H]1C[C@@H]2[C@](c3cc(Oc4cc(C#N)ccn4)ccc3F)(CO1)NC(=N)N(C)S2(=O)=O` [Example 3, 2-(4-fluoro-3-((4aS,7S,8aR)-3-imino-2,7-dimethyl-1,1-dioxidooctahydropyrano[3,4-e][1,2,4]thiadiazin-4a-yl)phenoxy)isonicotinonitrile], the Ki [1] was 2.7 nM and the Ki [2] was 2.3 nM.

`COC[C@H]1C[C@@H]2[C@](c3cc(Oc4ncncc4F)ccc3F)(CO1)NC(=N)N(C)S2(=O)=O` [Example 11, (4aS,7R,8aR)-4a-(2-fluoro-5-((5-fluoropyrimidin-4-yl)oxy)phenyl)-3-imino-7-(methoxymethyl)-2-methyloctahydropyrano[3,4-e][1,2,4]thiadiazine 1,1-dioxide] gave a Ki [1] of 5.9 nM and a Ki [2] of 4.5 nM.

In the case of `C[C@H]1C[C@@H]2[C@](c3cc(OCC45CC(C#N)(C4)C5)ccc3F)(CO1)NC(=N)N(C)S2(=O)=O` [Example 8, 3-((4-fluoro-3-((4aS,7S,8aR)-3-imino-2,7-dimethyl-1,1-dioxidooctahydropyrano[3,4-e][1,2,4]thiadiazin-4a-yl)phenoxy)methyl)bicyclo[1.1.1]pentane-1-carbonitrile], the Ki [1] is reported as 9.1 nM and the Ki [2] is reported as 28 nM.

Work on `C[C@H]1C[C@@H]2[C@](c3cc(Oc4cc(F)cnc4F)ccc3F)(CO1)NC(=N)N(C)S2(=O)=O` [Example 6, (4aS,7S,8aR)-4a-(5-((2,5-difluoropyridin-3-yl)oxy)-2-fluorophenyl)-3-imino-2,7-dimethyloctahydropyrano[3,4-e][1,2,4]thiadiazine 1,1-dioxide] yielded a Ki [1] of 7.1 nM and a Ki [2] of 15 nM.

`C[C@H]1C[C@@H]2[C@](c3cc(OCC4CC4)ccc3F)(CO1)NC(=N)N(C)S2(=O)=O` [Example 7, (4aS,7S,8aR)-4a-(5-(cyclopropylmethoxy)-2-fluorophenyl)-3-imino-2,7-dimethyloctahydropyrano[3,4-e][1,2,4]thiadiazine 1,1-dioxide] gave a Ki [1] of 28 nM and a Ki [2] of 4.3 nM.

With `COC[C@H]1C[C@@H]2[C@](c3cc(OCC45CC(C#N)(C4)C5)ccc3F)(CO1)NC(=N)N(C)S2(=O)=O` [Example 15, 3-((4-fluoro-3-((4aS,7R,8aR)-3-imino-7-(methoxymethyl)-2-methyl-1,1-dioxidooctahydropyrano[3,4-e][1,2,4]thiadiazin-4a-yl)phenoxy)methyl)bicyclo[1.1.1]pentane-1-carbonitrile] the Ki [1] was 9.1 nM and the Ki [2] was 28 nM.

`COC[C@H]1C[C@@H]2[C@](c3cc(Oc4cnccc4Cl)ccc3F)(CO1)NC(=N)N(C)S2(=O)=O` [Example 19, (4aS,7R,8aR)-4a-(5-((4-chloropyridin-3-yl)oxy)-2-fluorophenyl)-3-imino-7-(methoxymethyl)-2-methyloctahydropyrano[3,4-e][1,2,4]thiadiazine 1,1-dioxide] showed a Ki [1] of 203 nM and a Ki [2] of 89 nM.

In the case of `C[C@H]1C[C@@H]2[C@](c3cc(Oc4ncccc4F)ccc3F)(CO1)NC(=N)N(C)S2(=O)=O` [Example 1, (4aS,7S,8aR)-4a-(2-fluoro-5-((3-fluoropyridin-2-yl)oxy)phenyl)-3-imino-2,7-dimethyloctahydropyrano[3,4-e][1,2,4]thiadiazine 1,1-dioxide], the Ki [1] is reported as 3.4 nM and the Ki [2] is reported as 1.6 nM.

For `COC[C@H]1C[C@@H]2[C@](c3cc(Oc4cc(C#N)ccn4)ccc3F)(CO1)NC(=N)N(C)S2(=O)=O` [Example 10, 2-(4-fluoro-3-((4aS,7R,8aR)-3-imino-7-(methoxymethyl)-2-methyl-1,1-dioxidooctahydropyrano[3,4-e][1,2,4]thiadiazin-4a-yl)phenoxy)isonicotinonitrile], the Ki [1] was 1.9 nM and the Ki [2] was 3.4 nM.

With `COC[C@H]1C[C@@H]2[C@](c3cc(Oc4cccc(C#N)c4)ccc3F)(CO1)NC(=N)N(C)S2(=O)=O` [Example 17, 3-(4-fluoro-3-((4aS,7R,8aR)-3-imino-7-(methoxymethyl)-2-methyl-1,1-dioxidooctahydropyrano[3,4-e][1,2,4]thiadiazin-4a-yl)phenoxy)benzonitrile] the Ki [1] was 4.3 nM and the Ki [2] was 6.9 nM.

For `COC[C@H]1C[C@@H]2[C@](c3cc(OCC4CC4)ccc3F)(CO1)NC(=N)N(C)S2(=O)=O` [Example 14, (4aS,7R,8aR)-4a-(5-(cyclopropylmethoxy)-2-fluorophenyl)-3-imino-7-(methoxymethyl)-2-methyloctahydropyrano[3,4-e][1,2,4]thiadiazine 1,1-dioxide], the Ki [1] was 7.9 nM and the Ki [2] was 2 nM.

`C[C@H]1C[C@@H]2[C@](c3cc(Oc4ncncc4F)ccc3F)(CO1)NC(=N)N(C)S2(=O)=O` [Example 4, (4aS,7S,8aR)-4a-(2-fluoro-5-((5-fluoropyrimidin-4-yl)oxy)phenyl)-3-imino-2,7-dimethyloctahydropyrano[3,4-e][1,2,4]thiadiazine 1,1-dioxide] gave a Ki [1] of 12 nM and a Ki [2] of 5.9 nM.

For `COC[C@H]1C[C@@H]2[C@](c3cc(Oc4cc(F)cnc4F)ccc3F)(CO1)NC(=N)N(C)S2(=O)=O` [Example 13, (4aS,7R,8aR)-4a-(5-((2,5-difluoropyridin-3-yl)oxy)-2-fluorophenyl)-3-imino-7-(methoxymethyl)-2-methyloctahydropyrano[3,4-e][1,2,4]thiadiazine 1,1-dioxide], the Ki [1] was 2.1 nM and the Ki [2] was 10 nM.

In the case of `COC[C@H]1C[C@@H]2[C@](c3cc(Oc4ncc(F)cc4F)ccc3F)(CO1)NC(=N)N(C)S2(=O)=O` [Example 12, (4aS,7R,8aR)-4a-(5-((3,5-difluoropyridin-2-yl)oxy)-2-fluorophenyl)-3-imino-7-(methoxymethyl)-2-methyloctahydropyrano[3,4-e][1,2,4]thiadiazine 1,1-dioxide], the Ki [1] is reported as 20 nM and the Ki [2] is reported as 18 nM.

`C[C@H]1C[C@@H]2[C@](c3cc(Oc4ncc(F)cc4F)ccc3F)(CO1)NC(=N)N(C)S2(=O)=O` [Example 5, (4aS,7S,8aR)-4a-(5-((3,5-difluoropyridin-2-yl)oxy)-2-fluorophenyl)-3-imino-2,7-dimethyloctahydropyrano[3,4-e][1,2,4]thiadiazine 1,1-dioxide] was tested, and the Ki [1] was 25 nM and the Ki [2] was 13 nM.

With `COC[C@H]1C[C@@H]2[C@](c3cc(Oc4cccnc4)ccc3F)(CO1)NC(=N)N(C)S2(=O)=O` [Example 16, (4aS,7R,8aR)-4a-(2-fluoro-5-(pyridin-3-yloxy)phenyl)-3-imino-7-(methoxymethyl)-2-methyloctahydropyrano[3,4-e][1,2,4]thiadiazine 1,1-dioxide] the Ki [1] was 39 nM and the Ki [2] was 52 nM.

With `COC[C@H]1C[C@@H]2[C@](c3cc(Oc4cncc(OC)n4)ccc3F)(CO1)NC(=N)N(C)S2(=O)=O` [Example 9, (4aS,7R,8aR)-4a-(2-fluoro-5-((6-methoxypyrazin-2-yl)oxy)phenyl)-3-imino-7-(methoxymethyl)-2-methyloctahydropyrano[3,4-e][1,2,4]thiadiazine 1,1-dioxide] the Ki [1] was 4.6 nM and the Ki [2] was 9.4 nM.
